Patent publication US20030216398A1, “Soluble beta amyloid precursor protein secretion promoters” (priority 2002, published 2003)
Where a name gives a salt, the structure may show the parent alone.

Row | melting point [°C] | SMILES
1 | 180 to 181 | COc1ccc(C(=O)N2c3ccccc3[C@H](N(C)c3ccccc3)C[C@@H]2C)cc1OC (racemic) [Example 28, cis-1-(3,4-Dimethoxybenzoyl)-N,2-dimethyl-N-phenyl-1,2,3,4-tetrahydro-4-quinolinamine]
2 | 72 to 74 | COc1ccc(C(=O)N2CCC(N(C)c3ccc(Cl)cc3)c3ccccc32)cc1OC (stereo not drawn) [Example 36, N-(4-Chlorophenyl)-1-(3,4-dimethoxybenzoyl)-N-methyl-1,2,3,4-tetrahydro-4-quinolinamine]
3 | 121 | C[C@H]1C[C@@H](Nc2ccccc2)c2ccccc2N1C(=O)c1ccncc1 (relative stereo) [Example 3, cis-1-Isonicotinoyl-2-methyl-N-phenyl-1,2,3,4-tetrahydro-4-quinolinamine]
4 | 193 to 194 | C[C@H]1C[C@@H](Nc2ccccc2)c2ccccc2N1C(=O)c1ccc(-c2ccc(Cl)cc2)cc1 (relative stereo) [Example 52, cis-1-[(4′-Chloro[1,1′-biphenyl]-4-yl)carbonyl]-2-methyl-N-phenyl-1,2,3,4-tetrahydro-4-quinolinamine]
5 | 160 | COc1ccc(C(=O)N2CCC(Nc3cccc(Cl)c3)c3ccccc32)cc1OC (stereo not drawn) [Example 32, N-(3-Chlorophenyl)-1-(3,4-dimethoxybenzoyl)-1,2,3,4-tetrahydro-4-quinolinamine]
6 | 157 | C[C@H]1C[C@@H](Nc2ccccc2)c2ccccc2N1C(=O)c1ccccn1 (relative stereo) [Example 4, cis-2-Methyl-N-phenyl-1-(2-pyridinylcarbonyl)-1,2,3,4-tetrahydro-4-quinolinamine]
7 | 94 to 96 | COc1ccc(C(=O)N2CCC(Nc3ccc(C)c(Cl)c3)c3ccccc32)cc1OC (stereo not drawn) [Example 38, N-(3-Chloro-4-methylphenyl)-1-(3,4-dimethoxybenzoyl)-1,2,3,4-tetrahydro-4-quinolinamine]
8 | 155 to 156 | COc1ccc(C(=O)N2CCC(Nc3ccccc3)c3ccccc32)cc1OC (stereo not drawn) [Example 17, 1-(3,4-Dimethoxybenzoyl)-N-phenyl-1,2,3,4-tetrahydro-4-quinolinamine]
9 | 173 to 175 | COc1ccc(C(=O)N2c3ccccc3C(Nc3ccc(Br)cc3)CC2C)cc1OC (stereo not drawn) [Example 12, N-(4-Bromophenyl)-1-(3,4-dimethoxybenzoyl)-2-methyl-1,2,3,4-tetrahydro-4-quinolinamine]
10 | 175 | C[C@H]1C[C@H](Nc2ccccc2)c2ccccc2N1C(=O)c1ccc2c(c1)OCO2 (relative stereo) [Example 7, Trans-1-(1,3-Benzodioxol-5-ylcarbonyl)-2-methyl-N-phenyl-1,2,3,4-tetrahydro-4-quinolinamine]
11 | 205 | COc1cc(C(=O)N2c3ccccc3[C@@H](Nc3ccccc3)C[C@@H]2C)cc(OC)c1OC (relative stereo) [Example 8, Trans-2-Methyl-N-phenyl-1-(3,4,5-trimethoxybenzoyl)-1,2,3,4-tetrahydro-4-quinolinamine]
12 | 154 to 156 | COc1ccc(C(=O)N2CCC(Nc3c(Cl)cccc3Cl)c3ccccc32)cc1OC (stereo not drawn) [Example 26, N-(2,6-Dichlorophenyl)-1-(3,4-dimethoxybenzoyl)-1,2,3,4-tetrahydro-4-quinolinamine]
13 | 116 to 118 | COc1ccc(C(=O)N2CCC(Nc3ccc4ncccc4c3)c3ccccc32)cc1OC (stereo not drawn) [Example 21, 1-(3,4-Dimethoxybenzoyl)-N-(6-quinolinyl)-1,2,3,4-tetrahydro-4-quinolinamine]
14 | 133 to 134 | COc1ccc(C(=O)N2CCC(Nc3ccccc3F)c3ccccc32)cc1OC (stereo not drawn) [Example 24, 1-(3,4-Dimethoxybenzoyl)-N-(2-fluorophenyl)-1,2,3,4-tetrahydro-4-quinolinamine]
15 | 184 to 186 | COc1ccc(C(=O)N2c3ccccc3[C@@H](Nc3cccc(C)n3)C[C@@H]2C)cc1OC (relative stereo) [Example 13, Trans-1-(3,4-Dimethoxybenzoyl)-2-methyl-N-(6-methyl-2-pyridinyl)-1,2,3,4-tetrahydro-4-quinolinamine]
16 | 131 | COc1ccc(C(=O)N2CCC(Nc3ccc(Cl)cc3)c3ccccc32)cc1OC (stereo not drawn) [Example 14, N-(4-chlorophenyl)-1-(3,4-dimethoxybenzoyl)-1,2,3,4-tetrahydro-4-quinolinamine]
17 | 111 to 112 | COc1ccc(C(=O)N2CCN(Cc3ccccc3)c3ccccc32)cc1OC [Example 20, 1-Benzyl-4-(3,4-dimethoxybenzoyl)-1,2,3,4-tetrahydroquinoxaline]
18 | 148 to 150 | COc1ccc(C(=O)N2c3ccccc3C(Nc3ccccc3Cl)CC2C)cc1OC (stereo not drawn) [Example 27, N-(2-Chlorophenyl)-1-(3,4-dimethoxybenzoyl)-2-methyl-1,2,3,4-tetrahydro-4-quinolinamine]
19 | 146 to 147 | COc1ccc(C(=O)N2CCC(N(C)c3ccccc3Cl)c3ccccc32)cc1OC (stereo not drawn) [Example 35, N-(2-Chlorophenyl)-1-(3,4-dimethoxybenzoyl)-N-methyl-1,2,3,4-tetrahydro-4-quinolinamine]
20 | 92 to 93 | COc1ccc(C(=O)N2CCC(Nc3ccccc3Cl)c3ccccc32)cc1OC (stereo not drawn) [Example 23, N-(2-Chlorophenyl)-1-(3,4-dimethoxybenzoyl)-1,2,3,4-tetrahydro-4-quinolinamine]

Row | melting point [°C] | SMILES
21 | 93 to 96 | COc1ccc(C(=O)N2CCC(Nc3ccccc3C(C)C)c3ccccc32)cc1OC.Cl (stereo not drawn)
22 | 210 | C[C@H]1C[C@@H](Nc2ccccc2)c2ccccc2N1C(=O)c1ccncc1 (relative stereo) (hydrate or solvate) [Example 3, cis-1-Isonicotinoyl-2-methyl-N-phenyl-1,2,3,4-tetrahydro-4-quinolinamine]
23 | 117 to 118 | C[C@H]1C[C@H](Nc2ccccc2)c2ccccc2N1C(=O)c1ccc(Br)o1 (relative stereo) [Example 41, trans-1-(5-Bromo-2-furoyl)-2-methyl-N-phenyl-1,2,3,4-tetrahydro-4-quinolinamine]
24 | 87 to 89 | COc1ccc(C(=O)N2CCC(Nc3ccccc3Cl)c3cc(Cl)ccc32)cc1OC (stereo not drawn) [Example 39, 6-Chloro-N-(2-chlorophenyl)-1-(3,4-dimethoxybenzoyl)-1,2,3,4-tetrahydro-4-quinolinamine]
25 | 130 | COc1ccc(C(=O)N2CCC(Nc3ccc(Br)cc3)c3ccccc32)cc1OC (stereo not drawn) [Example 34, N-(4-Bromophenyl)-1-(3,4-dimethoxybenzoyl)-1,2,3,4-tetrahydro-4-quinolinamine]
26 | 143 to 144 | COc1ccc(C(=O)N2CCC(N(C)c3ccccc3)c3ccccc32)cc1OC (stereo not drawn) [Example 18, 1-(3,4-Dimethoxybenzoyl)-N-methyl-N-phenyl-1,2,3,4-tetrahydro-4-quinolinamine]
27 | 135 to 136 | COc1ccc(C(=O)N2CCC(Nc3ccc4c(c3)OCO4)c3ccccc32)cc1OC (stereo not drawn) [Example 31, N-(1,3-Benzodioxol-5-yl)-1-(3,4-dimethoxybenzoyl)-1,2,3,4-tetrahydro-4-quinolinamine]
28 | 165 to 167 | COc1ccc(C(=O)N2c3ccccc3C(Nc3ccc(Cl)cc3Cl)CC2C)cc1OC (stereo not drawn) [Example 43, N-(2,4-Dichlorophenyl)-1-(3,4-dimethoxybenzoyl)-2-methyl-1,2,3,4-tetrahydro-4-quinolinamine]
29 | 156 to 157 | COc1ccc(C(=O)N2CCC(Nc3ccccn3)c3ccccc32)cc1OC (stereo not drawn) [Example 22, 1-(3,4-Dimethoxybenzoyl)-N-(2-pyridinyl)-1,2,3,4-tetrahydro-4-quinolinamine]
30 | 175 | CC1CC(Nc2ccccc2)c2ccccc2N1C(=O)c1ccc2c(c1)OCO2 (stereo not drawn) [Example 5, cis-1-(1,3-Benzoxol-5-ylcarbonyl)-2-methyl-N-phenyl-1,2,3,4-tetrahydro-4-quinolinamine]
31 | 56 to 57 | COc1ccc(C(=O)N2CCC(Oc3ccc(Br)cc3)c3ccccc32)cc1OC (stereo not drawn) [Example 19]
32 | 74 to 76 | COc1ccc(C(=O)N2CCC(Nc3ccccc3Cl)c3ccc(Cl)cc32)cc1OC (stereo not drawn) (as salt: hydrochloride) [Example 51, 7-Chloro-N-(2-chlorophenyl)-1-(3,4-dimethoxybenzoyl)-1,2,3,4-tetrahydro-4-quinolinamine Hydrochloride]
33 | 146 to 148 | CCC1CC(N(C)c2ccccc2)c2ccccc2N1C(=O)c1ccc(OC)c(OC)c1 (stereo not drawn) [Example 54, 1-(3,4-Dimethoxybenzoyl)-2-ethyl-N-methyl-N-phenyl-1,2,3,4-tetrahydro-4-quinolinamine]
34 | 133 to 134 | COc1ccc(C(=O)N2CCN(Cc3ccc(-c4ccccc4)cc3)c3ccccc32)cc1OC [Example 42, 1-([1,1′-Biphenyl]-4-ylmethyl)-4-(3,4-dimethoxybenzoyl)-1,2,3,4-tetrahydroquinoxaline]
35 | 300 | COc1cc(C(=O)N2c3ccccc3C(Nc3ccccc3)CC2C)cc(OC)c1OC (stereo not drawn) [Example 6, cis-2-Methyl-N-phenyl-1-(3,4,5-trimethoybenzoyl)-1,2,3,4-tetrahydro-4-quinolinamine]
36 | 125 to 126 | COc1ccc(C(=O)N2CCC(Nc3ccccc3)c3ccc(Cl)cc32)cc1OC (stereo not drawn) [Example 50, 7-Chloro-1-(3,4-dimethoxybenzoyl)-N-phenyl-1,2,3,4-tetrahydro-4-quinolinamine]
37 | 188 to 189 | COc1ccc(C(=O)N2CCC(Nc3ccccc3)c3cc(Cl)ccc32)cc1OC (stereo not drawn) [Example 48, 6-Chloro-1-(3,4-dimethoxybenzoyl)-N-phenyl-1,2,3,4-tetrahydro-4-quinolinamine]
38 | 73 to 74 | COc1ccc(C(=O)N2CCC(N(C)c3ccc(Br)cc3)c3ccccc32)cc1OC (stereo not drawn) [Example 37, N-(4-Bromophenyl)-1-(3,4-dimethoxybenzoyl)-N-methyl-1,2,3,4-tetrahydro-4-quinolinamine]
39 | 176 to 178 | COc1ccc(C(=O)N2CCC(Nc3ccc(Cl)cc3)c3cc(Cl)ccc32)cc1OC (stereo not drawn) [Example 47, 6-Chloro-N-(4-chlorophenyl)-1-(3,4-dimethoxybenzoyl)-1,2,3,4-tetrahydro-4-quinolinamine]
